# Experimental data: ChEMBL document CHEMBL3102790, “Synthesis of quercetin glycosides and their melanogenesis stimulatory activity in B16 melanoma cells” (Bioorg Med Chem, 2014)
# Assays:
# [1] = target: T1, Tyrosinase (Agaricus bisporus) (UniProt O42713); assay: Induction of mushroom tyrosinase activity using L-tyrosine as substrate at 50 uM after 30 mins
# T1 sequence (whole entry): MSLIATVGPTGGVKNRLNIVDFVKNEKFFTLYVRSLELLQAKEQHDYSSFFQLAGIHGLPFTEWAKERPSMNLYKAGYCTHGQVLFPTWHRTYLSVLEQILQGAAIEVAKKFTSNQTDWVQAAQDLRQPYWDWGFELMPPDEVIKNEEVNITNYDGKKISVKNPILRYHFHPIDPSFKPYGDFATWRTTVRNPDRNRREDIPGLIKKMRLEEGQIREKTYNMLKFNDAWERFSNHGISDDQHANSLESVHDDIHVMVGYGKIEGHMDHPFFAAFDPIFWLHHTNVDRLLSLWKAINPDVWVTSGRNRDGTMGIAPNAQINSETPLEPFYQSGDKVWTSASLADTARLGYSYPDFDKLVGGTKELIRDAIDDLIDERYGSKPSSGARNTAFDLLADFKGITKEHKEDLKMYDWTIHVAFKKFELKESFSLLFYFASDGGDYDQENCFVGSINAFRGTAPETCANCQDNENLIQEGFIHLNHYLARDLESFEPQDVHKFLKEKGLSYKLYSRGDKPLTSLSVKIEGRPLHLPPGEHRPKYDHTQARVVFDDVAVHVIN
# [2] = target: T1, Tyrosinase (Agaricus bisporus); assay: Induction of mushroom tyrosinase activity using L-tyrosine as substrate at 100 uM after 30 mins
# [3] = target: T1, Tyrosinase (Agaricus bisporus); assay: Induction of mushroom tyrosinase activity using L-tyrosine as substrate at 200 uM after 30 mins
# [4] = target: T1, Tyrosinase (Agaricus bisporus); assay: Induction of mushroom tyrosinase activity using L-DOPA as substrate at 50 uM after 30 mins
# [5] = target: T1, Tyrosinase (Agaricus bisporus); assay: Induction of mushroom tyrosinase activity using L-DOPA as substrate at 100 uM after 30 mins
# [6] = target: T1, Tyrosinase (Agaricus bisporus); assay: Induction of mushroom tyrosinase activity using L-DOPA as substrate at 200 uM after 30 mins
# [7] = Cytotoxicity against mouse B16F10 cells assessed as cell viability at 10 uM by MTT assay; type: cell-based, B16-F10; details: read-out: Activity
# [8] = Cytotoxicity against mouse B16F10 cells assessed as cell viability at 100 uM by MTT assay; type: cell-based, B16-F10; details: read-out: Activity
# [9] = Cytotoxicity against mouse B16F10 cells assessed as cell viability at 200 uM by MTT assay; type: cell-based, B16-F10; details: read-out: Activity
# B16-F10 [10] = assay: Induction of melanogenesis in mouse B16F10 cells assessed as intracellular melanin level at 10 uM after 72 hrs; type: functional
# B16-F10 [11] = assay: Induction of melanogenesis in mouse B16F10 cells assessed as intracellular melanin level at 100 uM after 72 hrs; type: functional
# B16-F10 [12] = assay: Induction of melanogenesis in mouse B16F10 cells assessed as intracellular melanin level at 200 uM after 72 hrs; type: functional
# B16-F10 [13] = assay: Induction of melanogenesis in mouse B16F10 cells assessed as intracellular melanin level at 125 uM after 72 hrs; type: functional
# B16-F10 [14] = assay: Induction of melanogenesis in mouse B16F10 cells assessed as intracellular melanin level at 250 uM after 72 hrs; type: functional
# B16-F10 [15] = assay: Induction of melanogenesis in mouse B16F10 cells assessed as intracellular melanin level at 500 uM after 72 hrs; type: functional
# [16] = Cytotoxicity against mouse B16F10 cells assessed as cell viability at 125 uM by MTT assay; type: cell-based, B16-F10; details: read-out: Activity
# [17] = Cytotoxicity against mouse B16F10 cells assessed as cell viability at 250 uM by MTT assay; type: cell-based, B16-F10; details: read-out: Activity
# [18] = Cytotoxicity against mouse B16F10 cells assessed as cell viability at 500 uM by MTT assay; type: cell-based, B16-F10; details: read-out: Activity
# B16-F10 [19] = assay: Induction of melanogenesis in mouse B16F10 cells assessed as intracellular melanin level after 72 hrs; type: functional, cell-based
SMILES,Activity [1] [%],Activity [2] [%],Activity [3] [%],Activity [4] [%],Activity [5] [%],Activity [6] [%],viability at 10 µM [7] [%],viability at 100 µM [8] [%],viability at 200 µM [9] [%],Activity (B16-F10 [10]) [%],Activity (B16-F10 [11]) [%],Activity (B16-F10 [12]) [%],Activity (B16-F10 [13]) [%],Activity (B16-F10 [14]) [%],Activity (B16-F10 [15]) [%],viability at 125 µM [16] [%],viability at 250 µM [17] [%],viability at 500 µM [18] [%],Activity (B16-F10 [19])
O=c1c(O[C@@H]2O[C@H](CO)[C@@H](O[C@@H]3O[C@H](CO)[C@@H](O)[C@H](O)[C@H]3O)[C@H](O)[C@H]2O)c(-c2ccc(O[C@@H]3O[C@H](CO)[C@@H](O[C@@H]4O[C@H](CO)[C@@H](O)[C@H](O)[C@H]4O)[C@H](O)[C@H]3O)c(O)c2)oc2cc(O)cc(O)c12,100,95,97.6,107,103,108,107,106,99.7,79.7,84.77,99.7,,,,,,,
Cn1c(=O)c2nc[nH]c2n(C)c1=O.O [THEOPHYLLINE],,,,,,,,,,,,,127.6,131.7,166.8,95.5,94.4,91.4,
O=c1c(O[C@@H]2O[C@H](CO)[C@@H](O)[C@H](O)[C@H]2O)c(-c2ccc(O)c(O)c2)oc2cc(O)cc(O)c12 [ISOQUERCETIN],112,96.2,104,107,110,116,105,80.9,68.4,116.3,157.1,206.9,,,,,,,Dose-dependent effect
O=c1c(O[C@@H]2O[C@H](CO)[C@@H](O[C@@H]3O[C@H](CO)[C@@H](O)[C@H](O)[C@H]3O)[C@H](O)[C@H]2O)c(-c2ccc(O)c(O)c2)oc2cc(O[C@@H]3O[C@H](CO)[C@@H](O[C@@H]4O[C@H](CO)[C@@H](O)[C@H](O)[C@H]4O)[C@H](O)[C@H]3O)cc(O)c12,104,104,101,101,102,103,105,93.9,95.2,80.3,97.8,102.6,,,,,,,
O=c1c(O[C@@H]2O[C@H](CO)[C@@H](O[C@@H]3O[C@H](CO)[C@@H](O)[C@H](O)[C@H]3O)[C@H](O)[C@H]2O)c(-c2ccc(O[C@@H]3O[C@H](CO)[C@@H](O)[C@H](O)[C@H]3O)c(O)c2)oc2cc(O)cc(O)c12,105,95.9,106,101,103,101,90,86.8,74.8,137,151.5,190.5,,,,,,,Dose-dependent effect
O=c1c(O[C@@H]2O[C@H](CO)[C@@H](O)[C@H](O)[C@H]2O)c(-c2ccc(O)c(O)c2)oc2cc(O[C@@H]3O[C@H](CO)[C@@H](O[C@@H]4O[C@H](CO)[C@@H](O)[C@H](O)[C@H]4O)[C@H](O)[C@H]3O)cc(O)c12,95.2,89,85.6,108,105,110,95.1,113,111,91.1,78.9,83.8,,,,,,,
O=c1c(O[C@@H]2O[C@H](CO)[C@@H](O)[C@H](O)[C@H]2O)c(-c2ccc(O[C@@H]3O[C@H](CO)[C@@H](O[C@@H]4O[C@H](CO)[C@@H](O)[C@H](O)[C@H]4O)[C@H](O)[C@H]3O)c(O)c2)oc2cc(O)cc(O)c12,88.9,85.2,82.4,103,105,109,97.8,107,106,96.8,90.9,96.3,,,,,,,

# Further lines, with some results ahead:
Activity [1] [%],Activity [2] [%],Activity [3] [%],Activity [4] [%],Activity [5] [%],Activity [6] [%],SMILES,viability at 10 µM [7] [%],viability at 100 µM [8] [%],viability at 200 µM [9] [%],Activity (B16-F10 [10]) [%],Activity (B16-F10 [11]) [%],Activity (B16-F10 [12]) [%],Activity (B16-F10 [13]) [%],Activity (B16-F10 [14]) [%],Activity (B16-F10 [15]) [%],viability at 125 µM [16] [%],viability at 250 µM [17] [%],viability at 500 µM [18] [%],Activity (B16-F10 [19])
101,98.8,94.3,102,99.3,99.3,O=c1c(O[C@@H]2O[C@H](CO)[C@@H](O)[C@H](O)[C@H]2O)c(-c2ccc(O[C@@H]3O[C@H](CO)[C@@H](O)[C@H](O)[C@H]3O)c(O)c2)oc2cc(O)cc(O)c12,107,104,77.4,89.7,90.4,92.6,,,,,,,
97.5,95,82.2,103,107,112,O=c1c(O[C@@H]2O[C@H](CO)[C@@H](O[C@@H]3O[C@H](CO)[C@@H](O)[C@H](O)[C@H]3O)[C@H](O)[C@H]2O)c(-c2ccc(O)c(O)c2)oc2cc(O)cc(O)c12,99.6,93.2,81.1,102.6,126.8,176,,,,,,,Dose-dependent effect
92.8,85.5,86.7,103,103,106,O=c1c(O[C@@H]2O[C@H](CO)[C@@H](O)[C@H](O)[C@H]2O)c(-c2ccc(O)c(O)c2)oc2cc(O[C@@H]3O[C@H](CO)[C@@H](O)[C@H](O)[C@H]3O)cc(O)c12,97.7,78,114,85,113.9,86.5,,,,,,,
103,102,104,102,104,104,O=c1c(O[C@@H]2O[C@H](CO)[C@@H](O[C@@H]3O[C@H](CO)[C@@H](O)[C@H](O)[C@H]3O)[C@H](O)[C@H]2O)c(-c2ccc(O)c(O)c2)oc2cc(O[C@@H]3O[C@H](CO)[C@@H](O)[C@H](O)[C@H]3O)cc(O)c12,95.1,113,98.7,91.1,78.9,119,,,,,,,
